Experimental data taken from patent publication US11427567B2, “Imidazolyl pyrimidinylamine compounds as CDK2 inhibitors” (Incyte Corporation, priority 2019, dated 2022).

Target: CDK2/Cyclin E1 (Homo sapiens (Human), UniProt P24941)
Assay: CDK2/Cyclin E1 HTRF enzyme activity assay (Example A)
Format: biochemical
Conditions: 1 mM ATP
Experimental: Assays were conducted in white 384-well polystyrene plates in a final reaction volume of 8 μL. […] HTRF signals were read after 1 hour at room temperature on a PHERAstar FS plate reader (BMG Labtech). Data was analyzed with IDBS XLFit and GraphPad Prism 5.0 software using a three or four parameter dose response curve to determine IC50 for each compound.

Compound	IC50
CO[C@@H]1CCN(Cc2ccc(-n3cnc(-c4nc(NC5CCN(S(C)(=O)=O)CC5)ncc4C(F)(F)F)c3)c(Cl)c2)C1 [Example 207, (R)-4-(1-(2-Chloro-4-((3-methoxypyrrolidin-1-yl)methyl)phenyl)-1H-imidazol-4-yl)-N-(1-(methylsulfonyl)-piperidin-4-yl)-5-(trifluoromethyl)-pyrimidin-2-amine]	≤ 50 nM
CCN1CCC(c2ccc(-n3cnc(-c4nc(NC5CCN(S(C)(=O)=O)CC5)ncc4C(F)(F)F)c3)c(Cl)c2)CC1 [Example 438, 4-(1-(2-Chloro-4-(1-ethylpiperidin-4-yl)phenyl)-1H-imidazol-4-yl)-N-(1-(methylsulfonyl)piperidin-4-yl)-5-(trifluoromethyl)pyrimidin-2-amine]	≤ 50 nM
CS(=O)(=O)N1CC[C@@H](Nc2ncc(C(F)(F)F)c(-c3cn(CC(F)F)cn3)n2)[C@H](F)C1 [Example 331, 4-(1-(2,2-Difluoroethyl)-1H-imidazol-4-yl)-N-((3R,4R)-3-fluoro-1-(methylsulfonyl)piperidin-4-yl)-5-(trifluoromethyl)pyrimidin-2-amine]	≤ 50 nM
Cc1c(-n2cnc(-c3nc(NC4CCN(S(C)(=O)=O)CC4)ncc3C(F)(F)F)c2)ccnc1C#N [Example 292, 3-Methyl-4-(4-(2-((1-(methylsulfonyl)piperidin-4-yl)amino)-5-(trifluoromethyl)pyrimidin-4-yl)-1H-imidazol-1-yl)picolinonitrile]	≤ 50 nM
CC(C)(O)Cn1cnc(-c2nc(NC3CCN(S(=O)(=O)C4CC4)CC3)ncc2C(F)(F)F)c1 [Example 30, 1-(4-(2-((1-(Cyclopropylsulfonyl)piperidin-4-yl)amino)-5-(trifluoromethyl)pyrimidin-4-yl)-1H-imidazol-1-yl)-2-methylpropan-2-ol]	≤ 50 nM
CS(=O)(=O)N1CCC(Nc2ncc(C(F)(F)F)c(-c3cn(-c4ccc(CN5CC(F)C5)cc4Cl)cn3)n2)CC1 [Example 197, 4-(1-(2-Chloro-4-((3-fluoroazetidin-1-yl)methyl)phenyl)-1H-imidazol-4-yl)-N-(1-(methyl-sulfonyl)piperidin-4-yl)-5-(trifluoro-methyl)pyrimidin-2-amine]	≤ 50 nM
Cc1nc(-c2nc(N[C@H]3CCN(S(C)(=O)=O)C[C@H]3F)ncc2C(F)(F)F)cn1-c1ccc(CN2CCCC2)cc1F [Example 407, N-((3R,4S)-3-Fluoro-1-(methylsulfonyl)piperidin-4-yl)-4-(1-(2-fluoro-4-(pyrrolidin-1-ylmethyl)phenyl)-2-methyl-1H-imidazol-4-yl)-5-(trifluoromethyl)pyrimidin-2-amine]	≤ 50 nM
CCS(=O)(=O)N1CCC(Nc2ncc(C(F)(F)F)c(-c3cn(CC(F)F)cn3)n2)CC1 [Example 328, 4-(1-(2,2-Difluoroethyl)-1H-imidazol-4-yl)-N-(1-(ethylsulfonyl)piperidin-4-yl)-5-(trifluoromethyl)pyrimidin-2-amine]	≤ 50 nM
Cc1nc(-c2nc(NC3CCN(S(C)(=O)=O)CC3)ncc2C(F)(F)F)cn1C [Example 19, 4-(1,2-Dimethyl-1H-imidazol-4-yl)-N-(1-(methylsulfonyl)piperidin-4-yl)-5-(trifluoromethyl)pyrimidin-2-amine]	50 to 200 nM
CN1CCN(c2nccc(-n3cnc(-c4nc(NC5CCN(S(C)(=O)=O)CC5)ncc4C(F)(F)F)c3)c2C#N)CC1 [Example 316, 2-(4-Methylpiperazin-1-yl)-4-(4-(2-((1-(methylsulfonyl)piperidin-4-yl)amino)-5-(trifluoromethyl)pyrimidin-4-yl)-1H-imidazol-1-yl)nicotinonitrile]	≤ 50 nM
Cc1nccc(-n2cc(-c3nc(N[C@H]4CCN(S(C)(=O)=O)C[C@H]4F)ncc3C(F)(F)F)nc2C)c1F [Example 313, N-((3R,4S)-3-Fluoro-1-(methylsulfonyl)piperidin-4-yl)-4-(1-(3-fluoro-2-methylpyridin-4-yl)-2-methyl-1H-imidazol-4-yl)-5-(trifluoromethyl)pyrimidin-2-amine]	≤ 50 nM
CN(C)Cc1ccc(-n2cnc(-c3nc(NC4CCN(S(C)(=O)=O)CC4)ncc3C(F)(F)F)c2)c(Cl)c1F [Example 253, 4-(1-(2-Chloro-4-((dimethylamino)methyl)-3-fluorophenyl)-1H-imidazol-4-yl)-N-(1-(methylsulfonyl)piperidin-4-yl)-5-(trifluoromethyl)pyrimidin-2-amine]	≤ 50 nM

Results, then the molecule that gave them:

IC50	Compound
≤ 50 nM	CC(C)NC(C)c1cccc(-n2cnc(-c3nc(NC4CCN(S(C)(=O)=O)CC4)ncc3C(F)(F)F)c2)c1Cl (centres unmarked) [Example 468, 4-(1-(2-Chloro-3-(1-(isopropylamino)ethyl)phenyl)-1H-imidazol-4-yl)-N-(1-(methylsulfonyl)piperidin-4-yl)-5-(trifluoromethyl)pyrimidin-2-amine]
≤ 50 nM	CCN1CCN(c2nccc(-n3cnc(-c4nc(NC5CCN(S(C)(=O)=O)CC5)ncc4C(F)(F)F)c3)c2Cl)CC1 [Example 318, 4-(1-(3-Chloro-2-(4-ethylpiperazin-1-yl)pyridin-4-yl)-1H-imidazol-4-yl)-N-(1-(methylsulfonyl)piperidin-4-yl)-5-(trifluoromethyl)pyrimidin-2-amine]
≤ 50 nM	Cn1cc(S(=O)(=O)N2CCC(Nc3ncc(C(F)(F)F)c(-c4ncn(C)c4Br)n3)CC2)cn1 [Example 383, 4-(5-Bromo-1-methyl-1H-imidazol-4-yl)-N-(1-((1-methyl-1H-pyrazol-4-yl)sulfonyl)piperidin-4-yl)-5-(trifluoromethyl)pyrimidin-2-amine]
≤ 50 nM	CS(=O)(=O)N1CCC(Nc2ncc(C(F)(F)F)c(-c3cn(-c4ccc(C#N)nc4C(F)F)cn3)n2)CC1 [Example 100, 6-(Difluoromethyl)-5-(4-(2-((1-(methyl-sulfonyl)piperidin-4-yl)amino)-5-(trifluoro-methyl)pyrimidin-4-yl)-1H-imidazol-1-yl)picolinonitrile]
≤ 50 nM	Cc1nc(-c2nc(NC3CCN(S(C)(=O)=O)CC3)ncc2C(F)(F)F)cn1-c1ccc(N2CCN(C)CC2)cc1F [Example 103, 4-(1-(2-Fluoro-4-(4-methylpiperazin-1-yl)phenyl)-2-methyl-1H-imidazol-4-yl)-N-(1-(methylsulfonyl)piperidin-4-yl)-5-(trifluoromethyl)pyrimidin-2-amine]
≤ 50 nM	CC(c1cccc(-n2cnc(-c3nc(NC4CCN(S(C)(=O)=O)CC4)ncc3C(F)(F)F)c2)c1Cl)N(C)C (centres unmarked) [Example 376, 4-(1-(2-Chloro-3-(1-(dimethylamino)ethyl)phe-nyl)-1H-imidazol-4-yl)-N-(1-(methylsulfonyl)piperidin-4-yl)-5-(trifluoromethyl)pyrimi-din-2-amine]
≤ 50 nM	COC1CN(Cc2ccc(-n3cc(-c4nc(NC5CCN(S(C)(=O)=O)CC5)ncc4C(F)(F)F)nc3C)c(F)c2)C1 [Example 353, 4-(1-(2-Fluoro-4-((3-methoxyazetidin-1-yl)methyl)phenyl)-2-methyl-1H-imidazol-4-yl)-N-(1-(methylsulfonyl)piperidin-4-yl)-5-(trifluoromethyl)pyrimidin-2-amine]
≤ 50 nM	Cc1nccc(-n2cnc(-c3nc(NC4CCN(S(C)(=O)=O)CC4)ncc3C(F)(F)F)c2)c1C#N [Example 293, 2-Methyl-4-(4-(2-((1-(methylsulfonyl)piperidin-4-yl)amino)-5-(trifluoromethyl)pyrimidin-4-yl)-1H-imidazol-1-yl)nicotinonitrile]
